In PMC6753678, “Fueling Open Innovation for Malaria Transmission-Blocking Drugs: Hundreds of Molecules Targeting Early Parasite Mosquito Stages” (Frontiers in Microbiology, 2019):
Like-named read-outs stand apart in the source and are kept apart here.

What was measured:
HepG2 cells = assay: HepG2 cytotoxicity assay; conditions: for Pb ODA (this manuscript) HepG2 cytoxicity: HepG2 cytotoxicity listed with the Pb ODA data set (this manuscript); for IC50: read-out: HepG2 cytotoxicity assay IC50, dose response confirmation; for Unified cytotox: unified HepG2 value across the three screens
Outline: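 Here viability after a 48 h compound incubation (37°C, humidified 5% CO2) is measured by fluorescence and expressed as percent inhibition, with doxorubicin at 50 μM and DMSO as the bounding controls.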

[1] = system: 3D7-strain P. falciparum asexual parasites; assay: P. falciparum asexual growth inhibition assay (Pf GIA); type: cell-based, Plasmodium falciparum; conditions: dose response confirmation; read-out: Pf asexual growth inhibition assays IC50
Outline: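 3D7 parasites at 0.25% parasitemia, 2% hematocrit were exposed to compounds in dose response for 72 h at 37°C under 5% CO2, 5% O2. Viability read as parasite LDH activity (nitro blue tetrazolium, A650) after freeze-thaw; inhibition scaled to chloroquine (50 μM) and DMSO controls, mean of three biological replicates.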

[2] = system: P. berghei ookinete development; conditions: for % inhibition, Replicate A / % inhibition, Replicate B: primary screen at 1 μM
[3] = read-out: Pb ODA (this manuscript) IC50, P. berghei ookinete development assay, this manuscript
[4] = read-out: Pb Ookinete development assay IC50, dose response confirmation
[5] = read-out: Pb ODA IC50, this manuscript

O=C(Nc1ccc(OC2CCN(Cc3ccc(F)cc3)CC2)c(Cl)c1)c1cccs1.O=C(O)C(F)(F)F [TCMDC-133746]
Pb ODA (this manuscript) HepG2 cytoxicity (HepG2 cells): 38.90 µM | IC50 (HepG2 cells): 38.9 µM | IC50 [1]: 0.242 µM | Is compound selective in assay? Pb ODA active? [2]: 1 (key: 1: YES; 0: NO) | % inhibition, Replicate A [2]: 51.32% | % inhibition, Replicate B [2]: 44.22% | IC50 [2, 3]: 1.16 µM | IC50 [2, 4]: 1.17 µM

O=C(Nc1ccc(OC2CCN(Cc3ccc(F)cc3)C2)c(Cl)c1)c1cccs1.O=C(O)C(F)(F)F (stereo not shown) [TCMDC-133757]
IC50 (HepG2 cells): 25.1 µM | Unified cytotox (HepG2 cells): 25.12 µM | IC50 [1]: 0.187 µM | Is compound selective in assay? Pb ODA active? ([2]; 1: YES, 0: NO): 1 (1: YES) | % inhibition, Replicate A [2]: 48.09% | % inhibition, Replicate B [2]: 57.60% | IC50 [2, 5]: 1.91 µM | IC50 [2, 4]: 1.91 µM

O=C(Nc1ccc(OC2CCN(Cc3ccc(F)cc3)C2)c(Cl)c1)c1ccc(F)cc1.O=C(O)C(F)(F)F (stereo not shown) [TCMDC-133763]
IC50 (HepG2 cells): 24.6 µM | Unified cytotox (HepG2 cells): 24.55 µM | IC50 [1]: 0.878 µM | Is compound selective in assay? Pb ODA active? ([2]; 1: YES, 0: NO): 0 (0: NO) | % inhibition, Replicate A [2]: 33.23% | % inhibition, Replicate B [2]: 66.02% | IC50 [2, 5]: 2.95 µM | IC50 [2, 4]: 2.95 µM

CNC(=O)c1ccccc1Nc1nc(Nc2ccc(CCN3CCN(C)CC3)cc2)ncc1Cl.Cl [TCMDC-133800]
Pb ODA (this manuscript) HepG2 cytoxicity (HepG2 cells): 2.26 µM | IC50 (HepG2 cells): 2.26 µM | IC50 [1]: 0.402 µM | Is compound selective in assay? Pb ODA active? [2]: 0 (key: 1: YES; 0: NO) | % inhibition, Replicate A [2]: 66.37% | % inhibition, Replicate B [2]: 76.75% | IC50 [2, 3]: 2.31 µM | IC50 [2, 4]: 2.31 µM

Cc1cccc2nc(-c3ccc(-c4ccc(CN5CC(C)OC(C)C5)cc4)cc3)[nH]c12.O=C(O)C(F)(F)F (stereo not shown) [TCMDC-133823]
Pb ODA (this manuscript) HepG2 cytoxicity (HepG2 cells): 15.14 µM | IC50 (HepG2 cells): 15.1 µM | IC50 [1]: 0.168 µM | Is compound selective in assay? Pb ODA active? [2]: 1 (key: 1: YES; 0: NO) | % inhibition, Replicate A [2]: 122.68% | % inhibition, Replicate B [2]: 88.91% | IC50 [2, 3]: 0.43 µM | IC50 [2, 4]: 0.434 µM

Cc1cccc2nc(-c3ccc(-c4ccc(CN5CCOCC5)cc4)cc3)[nH]c12.O=C(O)C(F)(F)F [TCMDC-133825]
Pb ODA (this manuscript) HepG2 cytoxicity (HepG2 cells): 27.54 µM | IC50 (HepG2 cells): 27.5 µM | IC50 [1]: 2.23 µM | Is compound selective in assay? Pb ODA active? [2]: 1 (key: 1: YES; 0: NO) | % inhibition, Replicate A [2]: 75.48% | % inhibition, Replicate B [2]: 125.42% | IC50 [2, 3]: 0.63 µM | IC50 [2, 4]: 0.635 µM

Cc1cccc2nc(-c3ccc(-c4ccc(CN5CCCC(O)C5)cc4)cc3)[nH]c12.O=C(O)C(F)(F)F (stereo not shown) [TCMDC-133826]
Pb ODA (this manuscript) HepG2 cytoxicity (HepG2 cells): 12.88 µM | IC50 (HepG2 cells): 12.9 µM | IC50 [1]: 1.48 µM | Is compound selective in assay? Pb ODA active? [2]: 0 (key: 1: YES; 0: NO) | % inhibition, Replicate A [2]: 58.08% | % inhibition, Replicate B [2]: 28.26% | IC50 [2, 4]: 9.27 µM

CC1CN(Cc2ccc(-c3ccc(-c4nc5ccccc5[nH]4)cc3)cc2)CC(C)O1.O=C(O)C(F)(F)F (stereo not shown) [TCMDC-133828]
Pb ODA (this manuscript) HepG2 cytoxicity (HepG2 cells): 30.20 µM | IC50 (HepG2 cells): 30.2 µM | IC50 [1]: 1.14 µM | Is compound selective in assay? Pb ODA active? [2]: 1 (key: 1: YES; 0: NO) | % inhibition, Replicate A [2]: 97.54% | % inhibition, Replicate B [2]: 72.23% | IC50 [2, 3]: 0.87 µM | IC50 [2, 4]: 0.868 µM

CC1CN(Cc2ccc(-c3ccc(-c4nc5cc(F)ccc5[nH]4)cc3)cc2)CC(C)O1.O=C(O)C(F)(F)F (stereo not shown) [TCMDC-133831]
Pb ODA (this manuscript) HepG2 cytoxicity (HepG2 cells): 24.55 µM | IC50 (HepG2 cells): 24.6 µM | IC50 [1]: 1.22 µM | Is compound selective in assay? Pb ODA active? [2]: 1 (key: 1: YES; 0: NO) | % inhibition, Replicate A [2]: 81.24% | % inhibition, Replicate B [2]: 52.13% | IC50 [2, 4]: 1.18 µM

N#Cc1ccc(CN2CCC(Oc3ccc(NC(=O)c4cccs4)cc3Cl)CC2)cc1.O=C(O)C(F)(F)F [TCMDC-133955]
Pb ODA (this manuscript) HepG2 cytoxicity (HepG2 cells): 36.31 µM | IC50 (HepG2 cells): 36.3 µM | IC50 [1]: 0.6 µM | Is compound selective in assay? Pb ODA active? [2]: 0 (key: 1: YES; 0: NO) | % inhibition, Replicate A [2]: 56.20% | % inhibition, Replicate B [2]: 46.08% | IC50 [2, 3]: 4.36 µM | IC50 [2, 4]: 4.36 µM

CC(C)CCN1CCC(Oc2ccc(NC(=O)c3cccs3)cc2Cl)CC1.O=C(O)C(F)(F)F [TCMDC-133974]
Pb ODA (this manuscript) HepG2 cytoxicity (HepG2 cells): 21.38 µM | IC50 (HepG2 cells): 21.4 µM | IC50 [1]: 0.66 µM | Is compound selective in assay? Pb ODA active? [2]: 1 (key: 1: YES; 0: NO) | % inhibition, Replicate A [2]: 38.26% | % inhibition, Replicate B [2]: 57.89% | IC50 [2, 3]: 1.45 µM | IC50 [2, 4]: 1.45 µM

CNC(=O)c1cc(F)c(F)cc1Nc1nc(Nc2cccc(CS(C)(=O)=O)c2)ncc1Cl.O=CO [TCMDC-134060]
Pb ODA (this manuscript) HepG2 cytoxicity (HepG2 cells): 100.00 µM | IC50 (HepG2 cells): 100 µM | IC50 [1]: 1.57 µM | Is compound selective in assay? Pb ODA active? [2]: 1 (key: 1: YES; 0: NO) | % inhibition, Replicate A [2]: 53.04% | % inhibition, Replicate B [2]: 41.11% | IC50 [2, 3]: 2.15 µM | IC50 [2, 4]: 2.15 µM
